Measurements taken from patent US9458194B2, “Compounds useful in the treatment and/or care of the skin and their cosmetic or pharmaceutical compositions” (Lubrizol Advanced Materials, Inc., priority 2013, dated 2016).
Non-standard residues stand in square brackets, D forms with d. *: point of attachment. Palmitoyl = CCCCCCCCCCCCCCCC(=O)*; Orn = NCCC[C@H](N)C(=O)O; Dap = NC[C@H](N)C(=O)O; Dbu = Diaminobutyryl; NHHex = CCCCCCN*

Tests used:
[1] = system: human fibulin-5 gene promoter; experiment: Luminescence assay of human fibulin-5 gene promoter activation (Firefly luciferase); format: cell-based; details: 16-24 hours
Protocol: (§1) The effect of the compounds of the invention on the activity of the fibulin-5 and LOXL1 promoters was studied and compared to the levels of basal expression of the untreated cells (negative control) and with the effect of Interleukin-1β (IL-1β) in the same conditions.
(§2) Cells from an epithelial cell line doubly transfected with fibulin-5 and LOXL1 human promoters in which the luciferase gene is under the regulatory control of said promoters (4×10^4 cells/well) were seeded in a white plate and in a 96-well transparent plate, both treated with polylysine, and were incubated in Dulbecco's Modified Eagle Medium (DMEM-Glutamax™), with 10% of FBS, 1% Penicillin-Streptomycin (P/S), 1 mg/ml of Geneticin® (G418) and […] at 37° C. in at atmosphere with 5% CO2. After the incubation, the cells were incubated for 6 hours at 37° C. in at atmosphere with 5% CO2 with DMEM without serum. Then, this medium was removed and the cells were treated with different compounds at 0.1 mg/ml, 0.5 mg/ml, 1 mg/ml or 2 mg/mL in DMEM/1% FBS for 16-24 hours. As a positive control to activate the fibulin-5 and LOXL1 promoters 10 ng/ml of IL-1β were used and as a negative control untreated cells were used, just with DMEM/1% FBS. The incubations and treatments were carried out in parallel in the white plate and the transparent plate and in triplicate for each condition. After the treatment, the relative light units per second were determined (RLU/s) in the white plate by means of consecutive quantification of the activities of Firefly luciferase (fibulin-5 promoter) and Renilla luciferase (LOXL1 promoter), and the number of total cells/well in the transparent plate by means of staining with Crystal Violet (CV). To determine the Firefly and Renilla luciferase activities the Dual-Glo Luciferase Assay System kit by Promega was used. The cells were briefly lysed and the Firefly luciferase substrate was added. After incubating for 10 min at 25° C., the RLU/s were quantified by luminescence reader (Lumistar-BMG). Then the Firefly signal was extinguished and the Renilla luciferase substrate was added. After incubating for 5 min at 25° C., the RLU/s were quantified by the same luminescence reader. With regard to the determination of the total number of cells by Crystal Violet, the CV dyes the DNA of the cells and the quantity of dye taken by the cells can be measured in an absorbency reader at 630 nm (Multiskan Ascent). The color obtained is directly proportional to the total number of cells per well. The cells were briefly incubated with 0.05% CV plus 4% Formalin for 20 minutes and after several washes with Milli-Q water, the cells were left to dry for 1-2 hours and then 0.1 M of HCl was added for its immediate reading. The RLU/s of the luciferases corresponding to each promoter were normalized by the average of the total number of cells per condition. Three independent assays with 3 measurements per assay were carried out for Ac-L-Asp-L-Val-L-Lys-L-Tyr-OH at 0.1 mg/mL and 1 mg/mL. 1 assay with 3 measurements was carried out for the other compounds and concentrations.
(§3) The increase in the activity of the promoters with regard to the levels of expression of the negative control was determined.

[2] = system: human LOXL1 gene promoter; experiment: Luminescence assay of human LOXL1 gene promoter activation (Renilla luciferase); format: cell-based; details: 16-24 hours
Protocol: as §1, §2, §3

| Substance | Increase in the activity of the human promoter of the FIBULIN 5 gene with regard to the negative control ([1]; 2 mg/mL) [%] | Increase in the activity of the human promoter of the LOXL1 gene with regard to the negative control ([2]; 2 mg/mL) [%] | other results |
| --- | --- | --- | --- |
| Ac-Asn-L-His-L-Lys(Ac-Asn-L-His)-4-Abz-NH2 | – | – | Increase in the activity of the human promoter of the FIBULIN 5 gene with regard to the negative control ([1]; 0.5 mg/mL): 53%; Increase in the activity of the human promoter of the LOXL1 gene with regard to the negative control ([2]; 0.5 mg/mL): 47% |
| Ac-Gly-L-Gln-L-Lys(Ac-Gly-L-Gln)-4-Abz-NH2 | – | – | Increase in the activity of the human promoter of the FIBULIN 5 gene with regard to the negative control ([1]; 0.5 mg/mL): 17%; Increase in the activity of the human promoter of the LOXL1 gene with regard to the negative control ([2]; 0.5 mg/mL): 79% |
| Ac-L-Asn-L-IIe-L-Dpr-L-Tyr-OH (Ac-NI[Dap]Y-OH; SMILES CC[C@H](C)[C@H](NC(=O)[C@H](CC(N)=O)NC(C)=O)C(=O)N[C@@H](CN)C(=O)N[C@@H](Cc1ccc(O)cc1)C(=O)O) | 41.79 | 8.75 | – |
| Ac-L-Asn-L-Ile-L-Lys-L-Tyr-OH (Ac-NIKY-OH) | 12.25 | 9.83 | – |
| Ac-L-Asn-L-Thr-L-Lys(Ac-L-Asn-L-Thr)-4-Abz-NH2 | – | – | Increase in the activity of the human promoter of the FIBULIN 5 gene with regard to the negative control ([1]; 0.5 mg/mL): 39%; Increase in the activity of the human promoter of the LOXL1 gene with regard to the negative control ([2]; 0.5 mg/mL): 51% |
| Ac-L-Asn-L-Val-L-Dpr-L-Tyr-OH (Ac-NV[Dap]Y-OH; SMILES CC(=O)N[C@@H](CC(N)=O)C(=O)N[C@H](C(=O)N[C@@H](CN)C(=O)N[C@@H](Cc1ccc(O)cc1)C(=O)O)C(C)C) | 35.49 | 3.99 | – |
| Ac-L-Asp-L-Ile-L-Lys-L-Tyr-NH(n-hexadecyl) (Ac-DIKY-{NH(n-hexadecyl)}) | 59.33 | 27.08 | – |
| Ac-L-Asp-L-Leu-L-Lys-L-Tyr-OH (Ac-DLKY-OH) | 15.42 | 14.96 | – |
| Ac-L-Asp-L-Met-L-Lys-L-Tyr-OH (Ac-DMKY-OH) | 14.36 | 32.85 | – |
| Ac-L-Asp-L-Val-L-Dbu-L-Tyr-OH (Ac-DV[Dbu]Y-OH) | 17.08 | 28.10 | – |
| Ac-L-Asp-L-Val-L-Lys-L-Tyr-NH2 (Ac-DVKY-NH2) | 30.26 | 22.87 | – |
| Ac-L-Asp-L-Val-L-Lys-L-Tyr-NH(n-hexyl) (Ac-DVKY-NHHex; SMILES CCCCCCNC(=O)[C@H](Cc1ccc(O)cc1)NC(=O)[C@H](CCCCN)NC(=O)[C@@H](NC(=O)[C@H](CC(=O)O)NC(C)=O)C(C)C) | 18.11 | 7.54 | – |
| Ac-L-Asp-L-Val-L-Orn-L-Tyr-OH (Ac-DV[Orn]Y-OH; SMILES CC(=O)N[C@@H](CC(=O)O)C(=O)N[C@H](C(=O)N[C@@H](CCCN)C(=O)N[C@@H](Cc1ccc(O)cc1)C(=O)O)C(C)C) | 44.60 | 28.35 | – |
| Ac-L-Gln-L-Met-L-Lys-L-Tyr-OH (Ac-QMKY-OH) | 6.05 | 28.48 | – |
| Ac-L-Gln-L-Val-L-Dbu-L-Trp-NH2 (Ac-QV[Dbu]W-NH2) | 26.39 | 68.94 | – |
| Ac-L-Gln-L-Val-L-Lys-L-Trp-NH2 (Ac-QVKW-NH2) | 38.10 | 18.08 | – |
| Ac-L-Gln-L-Val-L-Lys-L-Tyr-OH (Ac-QVKY-OH) | 19.79 | 22.61 | – |
| Ac-L-Glu-L-Val-L-Lys-L-Trp-OH (Ac-EVKW-OH) | 10.92 | 22.22 | – |
| Ac-L-Glu-L-Val-L-Lys-L-Tyr-OH (Ac-EVKY-OH) | 27.45 | 5.59 | – |
| Ac-L-Lys-L-Cit-L-Lys(Ac-L-Lys-L-Cit)-4-Abz-NH2 | – | – | Increase in the activity of the human promoter of the FIBULIN 5 gene with regard to the negative control ([1]; 0.5 mg/mL): 21%; Increase in the activity of the human promoter of the LOXL1 gene with regard to the negative control ([2]; 0.5 mg/mL): 22% |
| H-L-Asn-L-Leu-L-Lys-L-Tyr-OH (H-NLKY-OH) | 9.69 | 16.67 | – |
| H-L-Asp-L-Val-L-Lys-L-Tyr-OH (H-DVKY-OH) | 41.93 | 21.82 | – |
| H-L-Gln-L-Ile-L-Orn-L-Tyr-OH (H-QI[Orn]Y-OH; SMILES CC[C@H](C)[C@H](NC(=O)[C@@H](N)CCC(N)=O)C(=O)N[C@@H](CCCN)C(=O)N[C@@H](Cc1ccc(O)cc1)C(=O)O) | 4.41 | 47.99 | – |
| H-L-Gln-L-Val-L-Orn-L-Tyr-OH (H-QV[Orn]Y-OH; SMILES CC(C)[C@H](NC(=O)[C@@H](N)CCC(N)=O)C(=O)N[C@@H](CCCN)C(=O)N[C@@H](Cc1ccc(O)cc1)C(=O)O) | 7.04 | 25.84 | – |
| Palm-L-Asn-L-Ile-L-Orn-L-Trp-NH(n-hexyl) (Palmitoyl-NI[Orn]W-NHHex; SMILES CCCCCCCCCCCCCCCC(=O)N[C@@H](CC(N)=O)C(=O)N[C@H](C(=O)N[C@@H](CCCN)C(=O)N[C@@H](Cc1c[nH]c2ccccc12)C(=O)NCCCCCC)[C@@H](C)CC) | – | – | Increase in the activity of the human promoter of the FIBULIN 5 gene with regard to the negative control ([1]; 1 mg/mL): 43.65%; Increase in the activity of the human promoter of the LOXL1 gene with regard to the negative control ([2]; 1 mg/mL): 18.48% |
| Palm-L-Asp-L-Val-L-Lys-L-Tyr-OH (Palmitoyl-DVKY-OH; SMILES CCCCCCCCCCCCCCCC(=O)N[C@@H](CC(=O)O)C(=O)N[C@H](C(=O)N[C@@H](CCCCN)C(=O)N[C@@H](Cc1ccc(O)cc1)C(=O)O)C(C)C) | 32.47 | 25.17 | – |
